From patent US5648458A, “Peptides and compounds that bind to ELAM-1” (Affymax Technologies N.V., priority 1995, dated 1997)
Ends that are not written are not given here.

Target: T1, immobilized ELAM-1 (Homo sapiens, UniProt P16581)
T1 construct: truncated form comprising the complete extracellular domain (amino acids 1 through 554); made in house
T1 sequence (P16581 22-554): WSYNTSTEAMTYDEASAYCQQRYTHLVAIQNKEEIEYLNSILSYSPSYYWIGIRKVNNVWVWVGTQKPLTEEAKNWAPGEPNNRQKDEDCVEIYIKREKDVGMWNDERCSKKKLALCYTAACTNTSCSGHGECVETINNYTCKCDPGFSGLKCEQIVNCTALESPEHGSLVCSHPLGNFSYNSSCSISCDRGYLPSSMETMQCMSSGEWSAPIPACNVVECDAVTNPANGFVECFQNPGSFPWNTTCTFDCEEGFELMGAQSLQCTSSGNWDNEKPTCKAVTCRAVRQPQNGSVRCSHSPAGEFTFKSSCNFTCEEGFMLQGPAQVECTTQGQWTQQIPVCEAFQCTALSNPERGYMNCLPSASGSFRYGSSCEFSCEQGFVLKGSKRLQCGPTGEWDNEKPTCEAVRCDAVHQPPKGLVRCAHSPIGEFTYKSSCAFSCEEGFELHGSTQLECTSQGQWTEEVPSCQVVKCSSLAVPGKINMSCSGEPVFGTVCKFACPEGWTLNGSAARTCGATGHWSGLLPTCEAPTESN
Assay type: cell-based
Conditions: 200000.0
Experimental: The assay requires HL60 cells labeled with tritiated thymidine. […] The cells are then placed in a T75 flask and incubated at 37° C. for 24 hours. The cells are then collected by centrifugation, washed twice with RPMI/HEPES/0.1% FCS, and resuspended in the same solution at a concentration of about one to two million cells per mL. About 100 μL of this cell preparation are used per well of a 96-well microtiter dish in the assay. The wells of the microtiter dish were first coated with the anti-receptor immobilizing antibody, an anti-HPAP-tail antibody, using about 2.5 μg of antibody per well. […] Then, the wells were washed three times with RPMI 1640 plus 0.1% FCS using a multichannel pipettor.

Sequence: HITWDQLWNVMN
- blocking of HL60 cell binding, relative to binding in the absence of added compound: over 80%
